Assay results reported in PubChem BioAssay AID248 (DTP/NCI, 2004).
Where “and” joins values, the source holds several entries; their conditions need not be identical. Identical values can stand only once. Toxic doses and inconclusive results are not listed. Cut-off read from the data, not from the text of the source: active = T/C of 150% or more; inactive = T/C below 125%. Peptide text beside a SMILES is read from it. * marks the point of attachment. Cbz = O=C(OCc1ccccc1)*

System: L1210 leukemia ip in BDF1 mice, survival T/C
Assay: NCI In Vivo Anticancer Drug Screen. Data for tumor model L1210 Leukemia (intraperitoneal) in B6D2F1 (BDF1) mice
Settings: endpoint: mean survival time, higher = longer survival
How it was run: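 In this screen, tumor-bearing mice given compound are compared to those given vehicle, and their survival values are reported as a treated-to-control quotient.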

[1] = dose: 100.0 mg/kg/injection, schedule: Q01DX001 (ip), vehicle: saline
[2] = dose: 200.0 mg/kg/injection, schedule: Q01DX001 (ip), vehicle: saline
[3] = dose: 400.0 mg/kg/injection, schedule: Q01DX001 (ip), vehicle: saline
[4] = dose: 100.0 mg/kg/injection, schedule: Q01DX009 (ip), vehicle: saline with Tween-80
[5] = dose: 100.0 mg/kg/injection, schedule: Q04DX003 (ip), vehicle: saline with Tween-80
[6] = dose: 200.0 mg/kg/injection, schedule: Q01DX009 (ip), vehicle: saline with Tween-80
[7] = dose: 200.0 mg/kg/injection, schedule: Q04DX003 (ip), vehicle: saline with Tween-80
[8] = dose: 400.0 mg/kg/injection, schedule: Q01DX009 (ip), vehicle: saline with Tween-80
[9] = dose: 400.0 mg/kg/injection, schedule: Q04DX003 (ip), vehicle: saline with Tween-80
[10] = dose: 50.0 mg/kg/injection, schedule: Q01DX001 (ip), vehicle: carboxymethylcellulose (CMC)
[11] = dose: 100.0 mg/kg/injection, schedule: Q01DX001 (ip), vehicle: carboxymethylcellulose (CMC)
[12] = dose: 100.0 mg/kg/injection, schedule: Q01DX009 (ip), vehicle: Klucel (hydroxypropylcellulose) (HPC)
[13] = dose: 200.0 mg/kg/injection, schedule: Q01DX001 (ip), vehicle: carboxymethylcellulose (CMC)
[14] = dose: 400.0 mg/kg/injection, schedule: Q01DX001 (ip), vehicle: carboxymethylcellulose (CMC)
[15] = dose: 100.0 mg/kg/injection, schedule: Q01DX009 (ip), vehicle: carboxymethylcellulose (CMC)
[16] = dose: 100.0 mg/kg/injection, schedule: Q04DX002 (ip), vehicle: carboxymethylcellulose (CMC)
[17] = dose: 200.0 mg/kg/injection, schedule: Q01DX009 (ip), vehicle: carboxymethylcellulose (CMC)
[18] = dose: 200.0 mg/kg/injection, schedule: Q04DX002 (ip), vehicle: carboxymethylcellulose (CMC)
[19] = dose: 400.0 mg/kg/injection, schedule: Q04DX002 (ip), vehicle: carboxymethylcellulose (CMC)
[20] = dose: 200.0 mg/kg/injection, schedule: Q01DX009 (ip), vehicle: Klucel (hydroxypropylcellulose) (HPC)
[21] = dose: 400.0 mg/kg/injection, schedule: Q01DX009 (ip), vehicle: Klucel (hydroxypropylcellulose) (HPC)

Measured: T/C

CC(C)=CCC(C)c1ccncc1 (stereo not given)
inactive: [1] 102 % of control | [2] 97 % of control | [3] 102 % of control

CCC(C)c1ccc(O)c(C(C)CC)c1 (stereo not given)
inactive: [4] 106 % of control | [5] 106 % of control | [6] 101 % of control | [7] 101 % of control | [8] 102 % of control | [9] 94 % of control

COc1ccc(N=O)c(O)c1
inactive: dose: 25.0 mg/kg/injection, schedule: Q01DX009 (ip), vehicle: Klucel (hydroxypropylcellulose) (HPC) 104 % of control | [10] 93 % of control | dose: 50.0 mg/kg/injection, schedule: Q01DX009 (ip), vehicle: Klucel (hydroxypropylcellulose) (HPC) 103 % of control | [11] 97 % of control | [12] 106 % of control | [13] 104 % of control | [14] 101 % of control

CCCCCCCCCC(=O)N1CCCCC1CC (stereo not given)
inactive: [11] 103 % of control | [15] 94 % of control and 95 % of control | [16] 100 % of control and 92 % of control | dose: 100.0 mg/kg/injection, schedule: Q04DX003 (ip), vehicle: carboxymethylcellulose (CMC) 92 % of control | [13] 101 % of control | [17] 95 % of control and 102 % of control | [18] 103 % of control and 92 % of control | dose: 200.0 mg/kg/injection, schedule: Q04DX003 (ip), vehicle: carboxymethylcellulose (CMC) 95 % of control | [14] 95 % of control | [19] 95 % of control and 96 % of control | dose: 400.0 mg/kg/injection, schedule: Q04DX003 (ip), vehicle: carboxymethylcellulose (CMC) 97 % of control

CC(C)c1nc(CO)c(CO)n1Cc1ccccc1
inactive: [11] 106 % of control | [15] 93 % of control and 109 % of control | dose: 100.0 mg/kg/injection, schedule: Q04DX002 (ip), vehicle: Klucel (hydroxypropylcellulose) (HPC) 112 % of control | [16] 93 % of control and 111 % of control | [13] 108 % of control | [17] 106 % of control and 91 % of control | dose: 200.0 mg/kg/injection, schedule: Q04DX002 (ip), vehicle: Klucel (hydroxypropylcellulose) (HPC) 102 % of control | [18] 105 % of control and 88 % of control | [14] 108 % of control | dose: 400.0 mg/kg/injection, schedule: Q01DX009 (ip), vehicle: carboxymethylcellulose (CMC) 106 % of control and 91 % of control | dose: 400.0 mg/kg/injection, schedule: Q04DX002 (ip), vehicle: Klucel (hydroxypropylcellulose) (HPC) 102 % of control | [19] 97 % of control and 90 % of control

NC(=S)Cc1ccccc1
inactive: dose: 100.0 mg/kg/injection, schedule: Q01DX001 (ip), vehicle: Klucel (hydroxypropylcellulose) (HPC) 91 % of control | dose: 200.0 mg/kg/injection, schedule: Q01DX001 (ip), vehicle: Klucel (hydroxypropylcellulose) (HPC) 87 % of control | dose: 400.0 mg/kg/injection, schedule: Q01DX001 (ip), vehicle: Klucel (hydroxypropylcellulose) (HPC) 100 % of control

CCOC(=O)CNC(=O)CNC(=O)CNC(=O)OCc1ccccc1 (Cbz-Gly-Gly-Gly-OEt)
inactive: [1] 93 % of control | [2] 88 % of control | [3] 94 % of control

OC(Cc1cnc2ccccc2n1)(C(F)(F)F)C(F)(F)F
inactive: [4] 98 % of control | [6] 94 % of control | [8] 95 % of control

NC(=O)c1n[nH]nc1N1CC[N+](CCCl)=N1
inactive: dose: 44.0 mg/kg/injection, schedule: Q01DX009 (ip), vehicle: saline with Tween-80 110 % of control | dose: 50.0 mg/kg/injection, schedule: Q01DX009 (ip), vehicle: saline with Tween-80 111 % of control | dose: 50.0 mg/kg/injection, schedule: Q04DX003 (ip), vehicle: saline with Tween-80 105 % of control | dose: 67.0 mg/kg/injection, schedule: Q01DX009 (ip), vehicle: saline with Tween-80 107 % of control | dose: 100.0 mg/kg/injection, schedule: Q01DX009 (ip), vehicle: saline 96 % of control | [5] 97 % of control and 113 % of control | dose: 100.0 mg/kg/injection, schedule: Q04DX003 (ip), vehicle: saline 107 % of control | dose: 150.0 mg/kg/injection, schedule: Q01DX009 (ip), vehicle: saline with Tween-80 112 % of control | dose: 200.0 mg/kg/injection, schedule: Q01DX009 (ip), vehicle: saline 91 % of control | [7] 118 % of control and 121 % of control | dose: 200.0 mg/kg/injection, schedule: Q04DX003 (ip), vehicle: saline 105 % of control | dose: 400.0 mg/kg/injection, schedule: Q01DX009 (ip), vehicle: saline 95 % of control | [9] 113 % of control | dose: 400.0 mg/kg/injection, schedule: Q04DX003 (ip), vehicle: saline 94 % of control

CC1CCOCO1 (stereo not given)
inactive: [10] 98 % of control | [11] 98 % of control | [13] 95 % of control | [14] 95 % of control

Nc1nc(N)c2cc(N(CCO)CCO)ccc2n1
inactive: dose: 50.0 mg/kg/injection, schedule: Q01DX001 (ip), vehicle: saline 101 % of control | [1] 95 % of control | [2] 95 % of control

O=C(O)C(CSC(c1ccccc1)(c1ccccc1)c1ccccc1)NSc1ccccc1[N+](=O)[O-] (stereo not given)
inactive: [12] 114 % of control | dose: 100.0 mg/kg/injection, schedule: Q04DX003 (ip), vehicle: Klucel (hydroxypropylcellulose) (HPC) 98 % of control | dose: 175.0 mg/kg/injection, schedule: Q01DX009 (ip), vehicle: Klucel (hydroxypropylcellulose) (HPC) 98 % of control | [20] 121 % of control | dose: 200.0 mg/kg/injection, schedule: Q04DX003 (ip), vehicle: Klucel (hydroxypropylcellulose) (HPC) 102 % of control | dose: 265.0 mg/kg/injection, schedule: Q01DX009 (ip), vehicle: Klucel (hydroxypropylcellulose) (HPC) 100 % of control | [21] 110 % of control | dose: 400.0 mg/kg/injection, schedule: Q04DX003 (ip), vehicle: Klucel (hydroxypropylcellulose) (HPC) 95 % of control

O=C(CC(c1ccccc1)c1c(O)c2ccccc2oc1=O)c1ccccc1 (stereo not given)
inactive: dose: 0.5 mg/kg/injection, schedule: Q01DX009 (ip), vehicle: saline with Tween-80 95 % of control | dose: 1.0 mg/kg/injection, schedule: Q01DX009 (ip), vehicle: saline with Tween-80 97 % of control | dose: 2.0 mg/kg/injection, schedule: Q01DX009 (ip), vehicle: saline with Tween-80 100 % of control | dose: 4.0 mg/kg/injection, schedule: Q01DX009 (ip), vehicle: saline with Tween-80 104 % of control | [5] 94 % of control | [7] 91 % of control | [9] 101 % of control

c1ccc(N/N=C(\c2ccccc2)c2ccccn2)cc1
inactive: dose: 100.0 mg/kg/injection, schedule: Q01DX001 (ip), vehicle: saline with Tween-80 105 % of control | dose: 200.0 mg/kg/injection, schedule: Q01DX001 (ip), vehicle: saline with Tween-80 94 % of control | dose: 400.0 mg/kg/injection, schedule: Q01DX001 (ip), vehicle: saline with Tween-80 94 % of control

CN(C(=O)Nc1cccc(C(F)(F)F)c1)c1ccccc1
inactive: [12] 98 % of control | [20] 96 % of control | [21] 101 % of control
